Test results taken from patent publication US20080027025A1 (The Regents of the University of California, priority 2004, published 2008).

Key:
[1] = system: N2a cells; format: cell-based, Murine
[2] = system: Reporter T cells containing an integrated loxP-STOP-loxP GFP expression gene; format: cell-based
[3] = system: N2aPK1 cells; format: cell-based, murine
[4] = system: cells; conditions: cited from earlier work

Molecule	cell surface association of rPrP^C-546 [1]	cellular uptake of rPrP^C-546 [1]	uptake of rPrP^C(23-90)-Cre into cells and subsequent DNA recombination (GFP-positive cells) [2]	further results
C=C1[C@@H](C)[C@H]2[C@H](Cc3ccccc3)NC(=O)[C@]23[C@H](OC(C)=O)/C=C/[C@@](C)(O)C(=O)[C@@H](C)C/C=C/[C@H]3[C@@H]1O [cytochalasin D]	did not block	prevented the cellular uptake	–	–
chondroitin sulfate B	–	–	inhibited protein uptake into cells and subsequent DNA recombination in a dose-dependent manner	–
CCN(c1nc(N)c(C(=O)NC(=N)N)nc1Cl)C(C)C [EIPA]	did not block	prevented the cellular uptake	–	PrP^C to PrP^Sc conversion (proteinase K resistant PrP) [3]: concentration-dependent inhibition
C[C@@H]1[C@H](O)[C@@H](C)/C=C/C=C/CC/C=C/C=C/C=C/C=C/C(O[C@H]2O[C@H](C)[C@@H](O)[C@H](N)[C@@H]2O)CC2O[C@](O)(CC(O)C(O)CCC(O)CC(O)CC(O)CC(=O)O[C@H]1C)CC(O)C2C(=O)O (stereo partly shown) [nystatin]	–	–	–	internalization of rPrP^C-Alexa546 [1]: prevented
heparin	–	–	inhibited protein uptake into cells and subsequent DNA recombination in a dose-dependent manner	surface binding of rPrP^C-Alexa546 [1]: prevented; PrP^C infection of cells [4]: can prevent
